Reference: patent US20090286836A1, “Novel Compounds” (priority 2008, published 2009)
Counter-ions that a name gives are not always drawn.

Legend:
[1] = biological target: T1, human NK3 receptor (Homo sapiens, UniProt P29371); experiment: NK functional potency, FLIPR calcium release in U2OS cells (NKB as ligand); type: cell-based; conditions: BacMam human NK3, average of at least two determinations, read-out: NK3 pKi (functional potency, fpKi) (converted)
T1 construct: expressed in transfected cells; host or cells: human U2OS cells transiently transduced with recombinant BacMam virus
T1 sequence (P29371 1-465): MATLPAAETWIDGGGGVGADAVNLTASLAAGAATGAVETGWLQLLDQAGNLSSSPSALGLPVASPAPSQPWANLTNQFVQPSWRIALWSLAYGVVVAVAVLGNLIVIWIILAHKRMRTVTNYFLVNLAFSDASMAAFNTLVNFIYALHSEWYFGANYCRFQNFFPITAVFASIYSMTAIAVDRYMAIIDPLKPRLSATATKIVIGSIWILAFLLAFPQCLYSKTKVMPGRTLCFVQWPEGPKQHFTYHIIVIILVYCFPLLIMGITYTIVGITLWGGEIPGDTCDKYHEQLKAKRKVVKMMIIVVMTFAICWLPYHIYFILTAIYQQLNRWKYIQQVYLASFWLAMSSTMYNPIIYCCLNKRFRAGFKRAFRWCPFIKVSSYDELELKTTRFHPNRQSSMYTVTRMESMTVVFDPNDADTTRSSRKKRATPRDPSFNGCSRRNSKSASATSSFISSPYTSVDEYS
Text: (§1) Compounds of the invention were further characterised in a functional assay using FLIPR technology for the determination of their effect to inhibit the intracellular calcium release induced by interaction of NK receptors with its perspective ligands. Human U2OS cells transiently transduced with recombinant BacMam virus expressing human NK1, NK2 and NK3 receptors were used in the studies (see J. P. Condreay et al, Proc. Natl. Acad. Sci. USA 1999, 96(1): 127-132). Briefly, U2OS cells were harvested from tissue culture flasks, re-suspended to a cell density of 200-300K/ml and mixed with recombinant BacMam virus carrying NKR gene in a virus/cell ratio of 1% (v/v). 10K-15K cells/well were then seeded in 384-well Greiner bio-one plate in culture medium (DMEM with 10% FBS), incubated overnight in 5% CO2 at 37° C. After aspirating the medium, cells were loaded 18-24 hr later with cytoplasmic calcium indicator Fluo-4 Calcium 3 dye (Molecular Devices Co.) in 30 uL/well buffer (Hank's balanced salts with 20 mM Hepes) and incubated in CO2 at 37° C. for 60 minutes. 10 uL/well assay buffer (Hank's balanced salts with 20 mM Hepes) containing different concentrations of compounds were then added to the cells for 30 minutes incubation at 37° C. Finally, 10 uL/well of NKR ligands in assay buffer containing 0.1% BSA was added to the cells and fluorescence signal read on a FLIPR system. Substance P, NKA and NKB peptides were used as the ligands for NK1, NK2 and NK3 receptor, respectively. IC50 values of each compound were determined by an 11-point 3×-dilution inhibition curve. The potency each antagonist (fpKi) was calculated from pIC50 by the Cheng-Prusoff equation using EC50 of ligand determined in a separate experiment.
(§2) The compounds of Example 11, Examples 2, 4 and 6 were tested in the NK functional potency assay.

[2] = biological target: T2, human NK1 receptor (Homo sapiens, UniProt P25103); experiment: NK functional potency, FLIPR calcium release in U2OS cells (Substance P as ligand); type: cell-based; parameters: expressed in transfected cells; host or cells: human U2OS cells transiently transduced with recombinant BacMam virus; conditions: BacMam human NK1, average of at least two determinations, read-out: NK1 pKi (functional potency, fpKi) (converted)
Text: as §1, §2

[3] = biological target: T3, human NK2 receptor (Homo sapiens, UniProt P21452); experiment: NK functional potency, FLIPR calcium release in U2OS cells (NKA as ligand); type: cell-based; conditions: BacMam human NK2, average of at least two determinations, read-out: NK2 pKi (functional potency, fpKi) (converted)
T3 construct: expressed in transfected cells; host or cells: human U2OS cells transiently transduced with recombinant BacMam virus
T3 sequence (P21452 1-398): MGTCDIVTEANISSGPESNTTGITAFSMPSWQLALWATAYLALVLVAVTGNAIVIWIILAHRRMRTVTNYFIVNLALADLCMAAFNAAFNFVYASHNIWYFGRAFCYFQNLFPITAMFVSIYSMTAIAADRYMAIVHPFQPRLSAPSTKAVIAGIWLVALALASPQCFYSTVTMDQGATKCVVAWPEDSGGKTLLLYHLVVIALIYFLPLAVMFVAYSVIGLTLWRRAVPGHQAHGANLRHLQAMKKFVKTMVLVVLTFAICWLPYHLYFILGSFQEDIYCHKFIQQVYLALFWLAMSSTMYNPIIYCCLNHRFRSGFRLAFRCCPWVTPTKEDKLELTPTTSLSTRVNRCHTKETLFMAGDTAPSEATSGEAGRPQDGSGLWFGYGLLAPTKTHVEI
Text: as §1, with “After aspirating the medium, cells were loaded 18-24 hr later with cytoplasmic calcium indicator Fluo-4 Calcium 3 dye (Molecular Devices Co.) in 30 uL/well buffer (Hank's balanced salts with 20 mM Hepes) and incubated in CO2 at 37° C. for 60 minutes. 10 uL/well assay buffer (Hank's balanced salts with 20 mM Hepes) containing different concentrations of compounds were then added to the cells for 30 minutes incubation at 37° C.” left out, “Substance P, NKA and NKB peptides were used as the ligands for NK1, NK2 and NK3 receptor, respectively.” left out, “experiment. […]” for “experiment.”

[4] = biological target: T4, NK1 receptor (Meriones unguiculatus, UniProt Q5DUB1); experiment: gerbil foot tapping model (GR73632-induced, icv); type: in vivo
T4 construct: from tissue; host or cells: living gerbils; central nervous system (icv agonist GR73632)
Text: The ability of the compounds of the invention to penetrate the central nervous system and to bind at the NK1 receptor may be determined using the gerbil foot tapping model as described by Rupniak & Williams, Eur. Jour. of Pharmacol., 1994. Intracerebroventricular (icv) administration of the NK1 receptor agonist GR73632 (R. M. Hagan et al., Neuropeptides 1991, 19 (2), 127-135) a characteristic hind leg foot tapping (GFT) response in gerbils which can be inhibited by potent NK1 receptor antagonists. The gerbil foot tapping paradigm was carried out as follows; gerbils were dosed with compound of the invention, and following an appropriate pre-treatment time were anaesthetised using isofluorane/oxygen mixture. The skull was then exposed and 5 ul of GR73632 ([…].) was injected by insertion of a cuffed 25G needle to a depth of 4 mm below bregma, directly into the lateral ventricle (intracerebroventricular dosing). Immediately following the injection, gerbils were placed individually into a clear observation box to recover.
Upon the gerbil regaining its righting reflex, the duration of repetitive hind foot tapping was recorded over a 5 minute period. The dose of the test compound required to inhibit by 50% the tapping induced by the NK1 agonist expressed as mg/kg is referred to as the ID50 values.

[5] = test system: common marmosets; experiment: marmoset human threat test; type: in vivo, common marmoset; conditions: for No. jumps / No. postures: marmoset, oral, 1 h before test; for No. jumps: mean±SEM (n=4), index of locomotor activity; for No. postures: mean±SEM (n=7)
Method: For example the marmoset human threat test (Costall et al., 1988
The study utilised in house laboratory-bred male and female common marmosets over 2 years of age, weighing 300-500 g. The animals were caged in couples, in a housing room maintained at 25±1° C., 60% humidity and a 12 hour light/dark cycle (lights on at 0600, with 30 min simulated dawn and twilight). Testing was carried out with the animals situated in the home cage.
One hour before the test animals were treated orally with vehicle (0.5% HPMC) or test compound (1 ml/kg). After a wash-out period of at least three days, treatments were reassigned and the study was complete when all animals had received all treatments. Number of specific behavioural postures in response to the human threat and the number of jumps were analysed in this study. The postures recorded in the test were those described by Costall et al (1988). and the number of jumps from the back of the cage to the cage front provided an index of locomotor activity to assess potential for sedation or locomotor stimulation.
Results are expressed as mean±SEM (n=7). of number of postures and as a mean±SEM (n=4) of number of jumps. Data were subjected to one-way analysis of variance (ANOVA) followed by Dunnett's test, comparing each compound dose with vehicle treatment, using Statistica software (version 8.0) Statistically significant differences with respect to vehicle are indicated as *P<0.01.

[6] = biological target: T2, human NK1 receptor; experiment: NK1 filtration binding assay with [3H]-GR205171 on human NK1-CHO cell membranes; parameters: expressed in transfected cells; conditions: average of five independent experiments, [3H]-GR205171 radioligand, read-out: NK1 binding affinity pKi (converted)
Method: The NK1 binding affinity of the compounds of the invention was determined using the following filtration binding assay using [^3H]-GR205171 as radioligand for human NK1 receptor stably expressed in CHO (Chinese Hamster Ovary) cells (see C. Griffante et al, Br. J. Pharmacol. 2006, 148, 39-45; H. M. Sarau et al, J. Pharmacol. Experimental Therapeutics 2000, 295(1), 373-381 and D. T. Beattie et al., Br. J. Pharmacol. 1995, 116, 3149-3157).
CHO cells stably expressing the human cloned neurokinin NK1 receptor were cultured in Dulbecco's Modified Eagle's Medium/F12 Ham (DMEM/F12Ham) supplemented with 10% foetal bovine serum and 2 mM L-glutamine. Cells were maintained in 5% CO2 in a humidified incubator at 37° C. […]
Binding assay was carried out in 96 deep well polypropylene plates (Whatman) in a volume of 400 μl consisted of 100 μl of incubation buffer (containing 50 mM HEPES, pH 7.4, 3 mM MnCl2, and 0.02% BSA), 4 μl of DMSO (total binding) or increasing concentrations of the compounds in the invention dissolved in DMSO (1 pM-1 μM final concentration), 100 μl of the radioligand [^3H]-GR205171 (0.2 nM final concentration) in incubation buffer and 200 μl of human NK1-CHO cell membranes suspension (4 μg/ml final) in incubation buffer. […] Filterplates were dried and retained radioactivity was counted in a Top Count (Perkin-Elmer). […]

T4 sequence (Q5DUB1 whole entry): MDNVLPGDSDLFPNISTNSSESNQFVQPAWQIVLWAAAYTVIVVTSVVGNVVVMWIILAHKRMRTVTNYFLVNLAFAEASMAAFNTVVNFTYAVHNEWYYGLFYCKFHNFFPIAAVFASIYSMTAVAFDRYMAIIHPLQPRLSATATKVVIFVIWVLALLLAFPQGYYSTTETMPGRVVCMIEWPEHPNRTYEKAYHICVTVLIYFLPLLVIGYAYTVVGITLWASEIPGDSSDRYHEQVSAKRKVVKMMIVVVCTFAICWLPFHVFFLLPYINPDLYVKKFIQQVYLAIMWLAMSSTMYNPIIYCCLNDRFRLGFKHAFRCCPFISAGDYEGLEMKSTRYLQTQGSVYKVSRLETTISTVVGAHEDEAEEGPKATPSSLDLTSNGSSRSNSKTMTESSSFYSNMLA
T2 sequence (P25103 whole entry): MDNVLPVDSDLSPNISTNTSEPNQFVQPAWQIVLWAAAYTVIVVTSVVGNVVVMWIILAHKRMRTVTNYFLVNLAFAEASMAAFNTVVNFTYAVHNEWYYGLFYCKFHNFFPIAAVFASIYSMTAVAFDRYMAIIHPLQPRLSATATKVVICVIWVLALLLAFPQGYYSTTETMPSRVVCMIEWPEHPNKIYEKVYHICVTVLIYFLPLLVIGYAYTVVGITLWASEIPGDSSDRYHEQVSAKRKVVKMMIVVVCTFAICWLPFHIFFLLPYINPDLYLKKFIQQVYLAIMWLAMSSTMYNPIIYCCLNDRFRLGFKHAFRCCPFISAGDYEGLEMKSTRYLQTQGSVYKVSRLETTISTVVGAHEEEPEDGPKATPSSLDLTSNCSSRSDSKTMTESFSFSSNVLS

Compound	Ki [1] [nM]	Ki [2] [nM]	Ki [3] [nM]	GR73632-induced Foot Tapping behaviour ([4]; gerbil, 0.3, 1.0 and 3.0 mg/kg p.o (P<0.01))	ID50 as plasma concentration ([4]; gerbil, p.o., GR73632 icv)	ED50 ([4]; po, gerbil, p.o., GR73632 icv, read-out: ID50, dose inhibiting by 50% the foot tapping induced by the NK1 agonist) [mg/kg]	effect on number of postures (anxiolytic effect) ([5]; marmoset, 0.1, 0.3 or 1 mg/kg oral, significant at 0.3 and 1 mg/kg (P<0.01), no reduction in number of jumps)	No. jumps ([5]; 0.1 mg/kg)	No. postures ([5]; 0.1 mg/kg)	No. jumps ([5]; 0.3 mg/kg)	No. postures ([5]; 0.3 mg/kg, *P<0.01 vs vehicle)	No. jumps ([5]; 1 mg/kg)	No. postures ([5]; 1 mg/kg, *P<0.01 vs vehicle)	Ki [6] [nM]
Cc1cc(F)ccc1-c1cc([C@H]2CC[C@](C)(C(N)=O)N2)ncc1N(C)C(=O)C(C)(C)c1cc(C(F)(F)F)cc(C(F)(F)F)c1 [Example 2, (5R)-5-[5-[{2-[3,5-bis(trifluoromethyl)phenyl]-2-methylpropanoyl}(methyl)amino]-4-(4-fluoro-2-methylphenyl)-2-pyridinyl]-2-methyl-D-prolinamide hydrochloride]	79.4	< 0.17												
Cc1cc(F)ccc1-c1cc([C@H]2CC[C@@](C)(C(N)=O)N2)ncc1N(C)C(=O)C(C)(C)c1cc(C(F)(F)F)cc(C(F)(F)F)c1 [Example 4, (5R)-5-[5-[{2-[3,5-bis(trifluoromethyl)phenyl]-2-methylpropanoyl}(methyl)amino]-4-(4-fluoro-2-methylphenyl)-2-pyridinyl]-2-methyl-L-prolinamide hydrochloride]	63.1	< 0.17												
Cc1cc(F)ccc1-c1cc([C@@H]2CC[C@](C)(C(N)=O)N2)ncc1N(C)C(=O)C(C)(C)c1cc(C(F)(F)F)cc(C(F)(F)F)c1 [Example 6, (5S)-5-[5-[{2-[3,5-bis(trifluoromethyl)phenyl]-2-methylpropanoyl}(methyl)amino]-4-(4-fluoro-2-methylphenyl)-2-pyridinyl]-2-methyl-D-prolinamide hydrochloride]	158	< 0.17												
Cc1cc(F)ccc1-c1cc([C@H]2CC[C@](C)(C(N)=O)N2)ncc1N(C)C(=O)C(C)(C)c1cc(C(F)(F)F)cc(C(F)(F)F)c1 [Example 11, (5R)-5-[5-[{2-[3,5-bis(trifluoromethyl)phenyl]-2-methylpropanoyl}(methyl)amino]-4-(4-fluoro-2-methylphenyl)-2-pyridinyl]-2-methyl-D-prolinamide bis-hydrochloride]	31.6	0.0794	> 1000	significantly attenuated	approximately 5 ng/ml plasma	~0.2	dose dependent reduction in the number of postures	20.1 ± 2.1	9.4 ± 1.0	13.4 ± 2.5	*6.3 ± 0.9	13.0 ± 2.1	*4.0 ± 0.4	0.132
